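Tested at 5 concentrations; 48 h exposure; 96-well plates; endpoints linearly interpolated, else capped at highest concentration. The concentration for 50% growth inhibition is given as GI50. TGI: total growth inhibition.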
Key:
Experiment in all cases: DTP human tumour cell line panel, 48 h
[1] = system: HOP-92 NSCLC
[2] = system: SNB-75 CNS
[3] = system: EKVX NSCLC
[4] = system: 786-0 renal
[5] = system: NCI/ADR-RES ovarian
[6] = system: OVCAR-3 ovarian
[7] = system: HOP-62 NSCLC
[8] = system: NCI-H460 lung
[9] = system: SW-620 colon
[10] = system: RPMI-8226 leukemia
[11] = system: SR leukemia
[12] = system: MCF7 breast
[13] = system: HS 578T breast
[14] = system: NCI-H522 lung
[15] = system: ACHN renal
[16] = system: U251 CNS
[17] = system: CCRF-CEM leukemia
[18] = system: NCI-H226 lung
[19] = system: M14 melanoma
[20] = system: RXF 393 renal
[21] = system: HL-60(TB) leukemia
[22] = system: NCI-H23 lung
[23] = system: PC-3 prostate
[24] = system: DU-145 prostate
[25] = system: OVCAR-4 ovarian
[26] = system: SF-268 CNS
[27] = system: MDA-MB-231 breast
[28] = system: UACC-257 melanoma
[29] = system: HCC-2998 colon
[30] = system: OVCAR-5 ovarian
[31] = system: COLO 205 colon
[32] = system: HCT-116 colon
[33] = system: MDA-MB-435
[34] = system: SK-MEL-2 melanoma
[35] = system: SN12C renal
[36] = system: A498 renal
[37] = system: UACC-62 melanoma
[38] = system: SK-MEL-28 melanoma
[39] = system: UO-31 renal
[40] = system: K-562 leukemia
[41] = system: SF-539 CNS
[42] = system: IGROV1 ovarian
[43] = system: MOLT-4 leukemia
[44] = system: HT29 colon
[45] = system: SK-OV-3 ovarian
[46] = system: A549 NSCLC
[47] = system: SNB-19 CNS
[48] = system: SF-295 CNS
[49] = system: HCT-15 colon
[50] = system: SK-MEL-5 melanoma
[51] = system: BT-549 breast
[52] = system: MALME-3M melanoma
[53] = system: TK-10 renal
[54] = system: KM12 colon
[55] = system: T-47D breast
[56] = system: CAKI-1 renal
[57] = system: OVCAR-8 ovarian
[58] = system: LOX IMVI melanoma

`CC(=C(c1ccc(OCCN2CCCC2)cc1)c1ccc(OCCN2CCCC2)cc1)c1ccc(Cl)cc1` gave a GI50 [1] of 1490 nM, a TGI [1] of 3920 nM and a GI50 [2] of 6850 nM. For the same compound, the TGI [2] was 16700 nM, the GI50 [3] was 2270 nM and the TGI [3] was 4650 nM. For the same compound, the GI50 [4] was 2110 nM, the TGI [4] was 4520 nM and the GI50 [5] was 2810 nM. The TGI [5] was 5720 nM, the GI50 [6] was 2640 nM and the TGI [6] was 5300 nM. The GI50 [7] was 2930 nM, the TGI [7] was 5970 nM and the GI50 [8] was 2960 nM. The TGI [8] was 5580 nM, the GI50 [9] was 2160 nM and the TGI [9] was 4540 nM. It also gave a GI50 [10] of 2570 nM, a TGI [10] of 6740 nM and a GI50 [11] of 745 nM. The TGI [11] was 16700 nM, the GI50 [12] was 409 nM and the TGI [12] was 2730 nM. For the same compound, the GI50 [13] was 2680 nM, the TGI [13] was 6590 nM and the GI50 [14] was 2960 nM. It also gave a TGI [14] of 5990 nM, a GI50 [15] of 2530 nM and a TGI [15] of 4780 nM. The GI50 [16] was 2200 nM, the TGI [16] was 4880 nM and the GI50 [17] was 1400 nM. For the same compound, the TGI [17] was 4720 nM, the GI50 [18] was 3040 nM and the TGI [18] was 6180 nM. For the same compound, the GI50 [19] was 2130 nM, the TGI [19] was 4590 nM and the GI50 [20] was 2010 nM. The TGI [20] was 4200 nM, the GI50 [21] was 3010 nM and the TGI [21] was 6340 nM. For the same compound, the GI50 [22] was 2690 nM, the TGI [22] was 5200 nM and the GI50 [23] was 2290 nM. It also gave a TGI [23] of 4790 nM, a GI50 [24] of 2600 nM and a TGI [24] of 5140 nM. It also gave a GI50 [25] of 2650 nM, a TGI [25] of 5390 nM and a GI50 [26] of 2700 nM. It also gave a TGI [26] of 5460 nM, a GI50 [27] of 2370 nM and a TGI [27] of 4950 nM. The GI50 [28] was 2970 nM, the TGI [28] was 5850 nM and the GI50 [29] was 2700 nM. It also gave a TGI [29] of 5320 nM, a GI50 [30] of 2560 nM and a TGI [30] of 4900 nM. It also gave a GI50 [31] of 2730 nM, a TGI [31] of 6140 nM and a GI50 [32] of 1150 nM. The TGI [32] was 3580 nM, the GI50 [33] was 2620 nM and the TGI [33] was 5030 nM. It also gave a GI50 [34] of 3100 nM, a TGI [34] of 6220 nM and a GI50 [35] of 2500 nM. For the same compound, the TGI [35] was 4980 nM, the GI50 [36] was 2450 nM and the TGI [36] was 4850 nM. For the same compound, the GI50 [37] was 2850 nM, the TGI [37] was 5520 nM and the GI50 [38] was 2640 nM. For the same compound, the TGI [38] was 5100 nM, the GI50 [39] was 2240 nM and the TGI [39] was 4460 nM. For the same compound, the GI50 [40] was 498 nM, the TGI [40] was 1750 nM and the GI50 [41] was 2340 nM. The TGI [41] was 4670 nM, the GI50 [42] was 2560 nM and the TGI [42] was 5110 nM. For the same compound, the GI50 [43] was 1380 nM, the TGI [43] was 4390 nM and the GI50 [44] was 660 nM. It also gave a TGI [44] of 2520 nM, a GI50 [45] of 2900 nM and a TGI [45] of 5490 nM. The GI50 [46] was 2740 nM, the TGI [46] was 5740 nM and the GI50 [47] was 2790 nM. The TGI [47] was 5300 nM, the GI50 [48] was 2690 nM and the TGI [48] was 5140 nM. For the same compound, the GI50 [49] was 655 nM, the TGI [49] was 2530 nM and the GI50 [50] was 2740 nM. For the same compound, the TGI [50] was 5210 nM, the GI50 [51] was 2630 nM and the TGI [51] was 5120 nM. It also gave a GI50 [52] of 2630 nM, a TGI [52] of 5180 nM and a GI50 [53] of 2580 nM. For the same compound, the TGI [53] was 5210 nM, the GI50 [54] was 2660 nM and the TGI [54] was 5630 nM. For the same compound, the GI50 [55] was 1940 nM, the TGI [55] was 5020 nM and the GI50 [56] was 2500 nM. It also gave a TGI [56] of 4850 nM, a GI50 [57] of 3250 nM and a TGI [57] of 7160 nM. The GI50 [58] was 516 nM and the TGI [58] was 2620 nM.

Reference: PubChem BioAssay (NCI)
